From ChEMBL document CHEMBL4393688, “Synthesis, in vitro and in vivo characterization of new benzoxazole and benzothiazole-based sigma receptor ligands” (Eur J Med Chem, 2019) come the findings set out here.

For experiment [1], the target named is Sigma non-opioid intracellular receptor 1 (Cavia porcellus, UniProt Q60492). Nature of the experiment: Displacement of [3H]-(+)-pentazocine from sigma1 receptor in guinea pig brain membranes incubated for 150 mins by scintillation counting method. Type of experiment: cell membranes. (In general: Displacement assays read how much labelled ligand stays bound in the presence of the test substance.)
Sigma non-opioid intracellular receptor 1, sequence (Q60492 whole entry): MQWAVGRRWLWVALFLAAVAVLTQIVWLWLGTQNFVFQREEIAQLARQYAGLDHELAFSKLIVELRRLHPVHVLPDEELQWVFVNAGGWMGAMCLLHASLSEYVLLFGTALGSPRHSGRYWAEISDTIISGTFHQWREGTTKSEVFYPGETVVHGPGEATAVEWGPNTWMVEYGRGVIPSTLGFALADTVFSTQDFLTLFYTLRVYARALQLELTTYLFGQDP

For experiment [2], the target named is Sigma intracellular receptor 2 (Homo sapiens, UniProt Q5BJF2). The experiment in a line: Displacement of [3H]-DTG from sigma2 receptor (unknown origin) incubated for 120 mins by scintillation counting method.
Sigma intracellular receptor 2, sequence (Q5BJF2 whole entry): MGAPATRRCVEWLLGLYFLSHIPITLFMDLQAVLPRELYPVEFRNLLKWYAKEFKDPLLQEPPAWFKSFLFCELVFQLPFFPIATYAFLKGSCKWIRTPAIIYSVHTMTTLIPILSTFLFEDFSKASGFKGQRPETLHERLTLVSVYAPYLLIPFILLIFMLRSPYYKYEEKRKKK
A short description of experiment [3]: Selectivity ratio of Ki for sigma2 receptor (unknown origin) to Ki for sigma1 receptor in guinea pig brain cortex membranes. The experiment is classed as cell membranes.
Experiment [4] relates to MCF7. The experiment in a line: Induction of apoptosis in human MCF7 cells assessed as increase in caspase-3 activity at 20 uM incubated for 24 hrs by Ac-DEVD-pNA substrate-based colorimetric assay. Type of experiment: functional, cell-based.
Experiment [5] relates to MCF7. The experiment in a line: Cytotoxicity against human MCF7 cells assessed as reduction in cell viability incubated for 24 hrs by MTT assay. Conditions: MCF7, 24 h. The experiment is classed as functional, cell-based. (Formazan colour is commonly taken as a measure of viable cells.)
The subject of experiment [6] is Mus musculus. Nature of the experiment: Analgesic activity in formalin-induced nociception mouse model assessed as decrease in time spent on licking or flinching formalin injected right hind paw during early nociceptive phase at 2.5 to 5 mg/kg, ip administered 15 mins prior to formalin challenge measured at 5 mins interval for 10 mins. Type of experiment: functional, organism-based.

The subject of experiment [7] is Mus musculus. Nature of the experiment: Analgesic activity in formalin-induced nociception mouse model assessed as decrease in time spent on licking or flinching formalin injected right hind paw during inflammatory phase at 2.5 to 5 mg/kg, ip administered 15 mins prior to formalin challenge measured at 5 mins interval for 10 to 60 mins. The experiment is classed as functional, organism-based.

Active and inactive are the calls of the source. The calls are words filed in the database; no cut-off is given here. Some results are limits rather than exact numbers.

In general, Ki refers to the dissociation constant of the complex between target and ligand, obtained from inhibition or displacement. High values mean lower affinity, low ones higher affinity. As for `O=c1sc2ccc(Cl)cc2n1CCN1CCCCCC1`, the Ki in experiment [1] was determined as 180 nM; in experiment [2], 1670 nM. Besides, in experiment [3], the Ratio Ki amounted to 9.3.

`O=c1sc2ccc(Cl)cc2n1CCCN1CCCCCC1`: the figures for the Ki in experiment [1] and in experiment [2] were 7.4 nM and 68.8 nM, respectively. Moreover, the Ratio Ki in experiment [3] came out at 9.3.

With `Clc1ccc2oc(SCCN3CCCCCC3)nc2c1`, the Ki is 1.93 nM in experiment [1] and 87 nM in experiment [2]. In addition, the Ratio Ki in experiment [3] was found to be 45.

Usually IC50 stands for the concentration needed to halve the response being measured. Regarding `O=C(CCCN1CCC(O)(c2ccc(Cl)cc2)CC1)c1ccc(F)cc1` [HALOPERIDOL], in the experiment with MCF7 [4], the result was Active. In addition, in the experiment with MCF7 [5], the IC50 stood at 20200 nM.

As to `O=c1oc2ccc(Cl)cc2n1CCCN1CCCCCC1`, the Ki came to 6.3 nM in experiment [1] and 64.1 nM in experiment [2]. For the same compound, the Ratio Ki in experiment [3] stood at 10.2.

With `O=c1sc2ccc(Cl)cc2n1CCCCN1CCCCCC1`, the result in the experiment on MCF7 [4] and in the experiment with Mus musculus [7] was Active. For the same compound, the Ki amounted to 0.78 nM in experiment [1] and 7.61 nM in experiment [2]. The Ratio Ki in experiment [3] is 9.7. In addition, the IC50 in the experiment on MCF7 [5] turned out to be 27800 nM. In addition, the outcome with Mus musculus [6] was inactive.

In the case of `Clc1ccc2sc(SCCN3CCCCCC3)nc2c1`, the Ki in experiment [1] was 407 nM; in experiment [2], over 1000 nM. Besides, the Ratio Ki in experiment [3] was over 2.4.

Turning to `Clc1ccc2oc(SCCCCN3CCCCCC3)nc2c1`, the Ki stood at 2.4 nM in experiment [1] and 11 nM in experiment [2]. Moreover, the Ratio Ki in experiment [3] turned out to be 4.6.

For `Clc1ccc2sc(SCCCCN3CCCCCC3)nc2c1`, the Ki in experiment [1] worked out at 8.44 nM; in experiment [2], 21.8 nM. Besides, the Ratio Ki in experiment [3] was 2.6.

On to `O=c1oc2ccc(Cl)cc2n1CCN1CCCCCC1`, for which the values for the Ki in experiment [1] and in experiment [2] were 99 nM and 652 nM, respectively. Besides, in experiment [3], the Ratio Ki amounted to 6.6.

For `CC[C@H]1C[C@@H]2C[C@H]3c4[nH]c5ccc(OC)cc5c4CC[N@@](C2)[C@@H]13`, the outcome in the experiment on MCF7 [4] was Active. Further, in the experiment with MCF7 [5], the IC50 turned out to be 29600 nM.

Consider `O=c1oc2ccc(Cl)cc2n1CCCCN1CCCCCC1`, for which the result in the experiment with MCF7 [4], in the experiment on Mus musculus [6] and with Mus musculus [7] was Active. Also, the values for the Ki in experiment [1] and in experiment [2] were 2.3 nM and 3.8 nM, respectively. Further, the Ratio Ki in experiment [3] worked out at 1.6. The IC50 in the experiment on MCF7 [5] was determined as 44800 nM.

Consider `Clc1ccc2sc(SCCCN3CCCCCC3)nc2c1`, for which the outcome with MCF7 [4] was Active. The Ki in experiment [1] came out at 1.27 nM; in experiment [2], 7.9 nM. Besides, the Ratio Ki in experiment [3] amounted to 6.8. Also, the IC50 with MCF7 [5] came out at 20500 nM. For the same compound, the outcome with Mus musculus [6] and in the experiment on Mus musculus [7] was inactive.

Turning to `Clc1ccc2oc(SCCCN3CCCCCC3)nc2c1`, the Ki in experiment [1] came to 2.35 nM; in experiment [2], 16 nM. Moreover, in experiment [3], the Ratio Ki turned out to be 6.2.
